Measured values as given in patent publication US20090023813A1, “Diphenyl Urea Derivatives” (Arpida AG, priority 2005, published 2009).
Converted amounts (≈) assume the structure as drawn. Read-outs that look alike come from different tables or passages of the source.

Key:
Assay type in all cases: cell-based
[1] = test system: S. viridans UHC7; assay: Antimicrobial susceptibility testing of streptococci (CLSI, Todd Hewitt Broth without blood); details: Streptococcus viridans, representative pathogens for dental infections, read-out: Minimum Inhibitory Concentration (MIC) S. viridans UHC7
Protocol: (§1) Antimicrobial susceptibility testing was performed in accordance with the Clinical and Laboratory Standards Institute (CLSI). Clinical and Laboratory Standards Institute (CLSI; formerly NCCLS): Methods for Dilution Antimicrobial Susceptibility Tests for Bacteria That Grow Aerobically; Approved Standard—Seventh Edition (2006). Clinical and Laboratory Standards Institute document M7-A7. Streptococci (S. pneumoniae, S. pyogenes, S. viridans) were tested following the CLSI methodology with the exception that Todd Hewitt Broth without blood was used. Anaerobic bacteria (P. acnes, B. distasonis) were tested following CLSI (formerly NCCLS) guidelines except for using microbroth dilutions in Wilkins Chalgren Broth. National Committee for Clinical Laboratory Standards (NCCLS). Methods for Anti-microbial Susceptibility Testing of Anaerobic Bacteria; Approved Standard—Sixth Edition (2004). NCCLS document M11-A6.

[2] = test system: S. pneumoniae 1/1; assay: as above; details: Streptococcus pneumoniae, representative pathogens for ocular infections, read-out: Minimum Inhibitory Concentration (MIC) S. pneumoniae 1/1
Protocol: as §1

[3] = test system: S. pyogenes GAS-1; assay: as above; details: for MIC: Streptococcus pyogenes, GAS1, representative pathogens for ocular infections, read-out: Minimum Inhibitory Concentration (MIC) S. pyogenes GAS-1; for Minimum Inhibitory Concentration (MIC) S. pyogenes GAS-1: representative pathogens for skin infections
Protocol: as §1

[4] = test system: S. aureus ATCC 25923; assay: Antimicrobial susceptibility testing (CLSI broth dilution MIC); details: Staphylococcus aureus, ATCC25923
Protocol: (§2) Antimicrobial susceptibility testing was performed in accordance with the Clinical and Laboratory Standards Institute (CLSI).
(§3) Clinical and Laboratory Standards Institute (CLSI; formerly NCCLS): Methods for Dilution Antimicrobial Susceptibility Tests for Bacteria That Grow Aerobically; Approved Standard—Seventh Edition (2006). Clinical and Laboratory Standards Institute document M7-A7.

[5] = test system: S. aureus MRSA 101; assay: as above; details: Staphylococcus aureus
Protocol: as §2, §3

[6] = test system: S. epidermidis MRSE 70; assay: as above; details: for MIC: Staphylococcus epidermidis, MRSE, representative pathogens for nasal colonization, read-out: Minimum Inhibitory Concentration (MIC) S. epidermidis MRSE 70
Protocol: as §2, §3

[7] = test system: S. aureus MRSA 39; assay: as above; details: for MIC: Staphylococcus aureus, MRSA, representative pathogens for nasal colonization, read-out: Minimum Inhibitory Concentration (MIC) S. aureus MRSA 39
Protocol: as §2, §3

[8] = test system: E. faecalis VanB E80-8; assay: as above; details: for MIC: Enterococcus faecalis, VANBE808, representative pathogens for skin infections, read-out: Minimum Inhibitory Concentration (MIC) E. faecalis VanB E80-8; for Minimum Inhibitory Concentration (MIC) E. faecalis VanB E80-8: representative pathogens for gastro-intestinal infections
Protocol: as §2, §3

[9] = test system: B. distasonis 5770; assay: Antimicrobial susceptibility testing of anaerobic bacteria (microbroth dilution, Wilkins Chalgren Broth); details: Parabacteroides distasonis, representative pathogens for gastro-intestinal infections, read-out: Minimum Inhibitory Concentration (MIC) B. distasonis 5770
Protocol: as §1, with “(CLSI).” for “(CLSI). Clinical and Laboratory Standards Institute (CLSI; formerly NCCLS): Methods for Dilution Antimicrobial Susceptibility Tests for Bacteria That Grow Aerobically; Approved Standard—Seventh Edition (2006). Clinical and Laboratory Standards Institute document M7-A7.”

[10] = test system: P. acnes 6390; assay: as above; details: Cutibacterium acnes, representative pathogens for skin infections, read-out: Minimum Inhibitory Concentration (MIC) P. acnes 6390
Protocol: as §1, with “(CLSI).” for “(CLSI). Clinical and Laboratory Standards Institute (CLSI; formerly NCCLS): Methods for Dilution Antimicrobial Susceptibility Tests for Bacteria That Grow Aerobically; Approved Standard—Seventh Edition (2006). Clinical and Laboratory Standards Institute document M7-A7.”

[11] = representative pathogens for nasal colonization, read-out: Minimum Inhibitory Concentration (MIC) S. aureus ATCC 25923
[12] = representative pathogens for ocular infections, read-out: Minimum Inhibitory Concentration (MIC) S. aureus 25923
[13] = representative pathogens for nasal colonization, read-out: Minimum Inhibitory Concentration (MIC) S. aureus MRSA 101
[14] = representative pathogens for ocular infections, read-out: Minimum Inhibitory Concentration (MIC) S. aureus MRSA101
[15] = representative pathogens for ocular infections
[16] = representative pathogens for skin infections

| MIC [1] [µg/mL] | MIC [2] [µg/mL] | MIC [3] [µg/mL] | Minimum Inhibitory Concentration (MIC) S. pyogenes GAS-1 [3] [micrograms/ml] | MIC [4, 11] [µg/mL] | MIC [4, 12] [µg/mL] | MIC [5, 13] [µg/mL] | MIC [5, 14] [µg/mL] | MIC [6] [µg/mL] | Minimum Inhibitory Concentration (MIC) S. epidermidis MRSE 70 [6, 15] [micrograms/ml] | Minimum Inhibitory Concentration (MIC) S. epidermidis MRSE 70 [6, 16] [micrograms/ml] | MIC [7] [µg/mL] | Minimum Inhibitory Concentration (MIC) S. aureus MRSA 39 [7, 15] [micrograms/ml] | Minimum Inhibitory Concentration (MIC) S. aureus MRSA 39 [7, 16] [micrograms/ml] | MIC [8] [µg/mL] | Minimum Inhibitory Concentration (MIC) E. faecalis VanB E80-8 [8] [micrograms/ml] | MIC [9] [µg/mL] | MIC [10] [µg/mL] | SMILES |
| --- | --- | --- | --- | --- | --- | --- | --- | --- | --- | --- | --- | --- | --- | --- | --- | --- | --- | --- |
| 0.5 (≈ 1.2 µM) | 0.06 (≈ 0.144 µM) | 0.25 (≈ 0.599 µM) | 0.25 | 0.25 (≈ 0.599 µM) | 0.25 (≈ 0.599 µM) | 0.125 (≈ 0.3 µM) | 0.125 (≈ 0.3 µM) | 0.25 (≈ 0.599 µM) | 0.25 | 0.25 | 0.25 (≈ 0.599 µM) | 0.25 | 0.25 | 1 (≈ 2.4 µM) | 1 | 1 (≈ 2.4 µM) | ≤ 0.03 | O=C(Nc1cc(Cl)cc(C(F)(F)F)c1)Nc1ccc(Cl)c(C(F)(F)F)c1 [Example 2, 1-(3-Chloro-5-trifluoromethyl-phenyl)-3-(4-chloro-3-trifluoromethyl-phenyl)-urea] |
| 1 (≈ 2.09 µM) | 0.25 (≈ 0.523 µM) | 0.25 (≈ 0.523 µM) | 0.25 | 0.125 (≈ 0.262 µM) | 0.125 (≈ 0.262 µM) | 0.5 (≈ 1.05 µM) | 0.5 (≈ 1.05 µM) | 0.25 (≈ 0.523 µM) | 0.25 | 0.25 | 0.25 (≈ 0.523 µM) | 0.25 | 0.25 | 1 (≈ 2.09 µM) | 1 | 1 (≈ 2.09 µM) | ≤ 0.03 | FC(F)(F)c1cc(Br)cc(NC(=S)Nc2ccc(Cl)c(C(F)(F)F)c2)c1 [Example 3, 1-(3-Bromo-5-trifluoromethyl-phenyl)-3-(4-chloro-3-trifluoromethyl-phenyl)-thiourea] |
| 0.5 (≈ 1.08 µM) | 0.125 (≈ 0.271 µM) | 0.25 (≈ 0.542 µM) | 0.25 | 0.5 (≈ 1.08 µM) | 0.5 (≈ 1.08 µM) | 0.125 (≈ 0.271 µM) | 0.125 (≈ 0.271 µM) | 0.25 (≈ 0.542 µM) | 0.25 | 0.25 | 0.25 (≈ 0.542 µM) | 0.25 | 0.25 | 2 (≈ 4.33 µM) | 2 | 0.5 (≈ 1.08 µM) | ≤ 0.03 | O=C(Nc1cc(Br)cc(C(F)(F)F)c1)Nc1ccc(Cl)c(C(F)(F)F)c1 [Example 1, 1-(3-Bromo-5-trifluoromethyl-phenyl)-3-(4-chloro-3-trifluoromethyl-phenyl)-urea] |
